Test results reported in patent US20220251158A1, “INTERMEDIATE FILAMENT-DERIVED PEPTIDES AND THEIR USES” (UNIVERSITAT DE LLEIDA, priority 2019, published 2022).

test system: different populations of leukocytes; assay: Annexin V expression in leukocytes with 9 amino acid core peptides; type: cell-based; settings: 9 amino acid peptide added directly to cell culture
Description: For cell death and apoptosis analysis, 400.000 of primary cells or 100.000 of cell line cells were incubated in 96-well plates in 200 μL of complete culture medium for 24 h at 37° C. and 5% CO2 in the absence or presence of 55 μM of different peptides. After 1 hour, 24 hours or 48 hours, apoptosis was measured by CFBlue Annexin V Apoptosis Detection Kit with PI (ANXVKCFB-100T, Immunostep), following kit protocol. For cleaved caspasa-3 intracellular staining, mononuclear cells were permeabilised following the manufacturer's instructions of the FoxP3 Staining Buffer Set (00-5523-00, eBioscience) and the cleaved caspasa-3-Pacific Blue (8788S, Cell Signalling) was used for staining. Cell suspensions were analysed by flow cytometry using FACS CANTO II instrumentation (BD, Biosciences, San Jose, Calif.) and Flowjo (version 8.7) software.

Row | Sequence | induction of the expression of annexin V
1 | VKMALDVEI (Variant of core sequence - Des9) | not to be positive
2 | VKLALDIEI (Variant of core sequence - GFAP9) | not to be positive
3 | VKMALDIEI (Variant of core sequence - Per9) | not to be positive
